# In patent US20050019923A1, “Dendrimers for use in targeted delivery” (priority 2001, published 2005):
# Test system: A431 cell line
# Assay: In vitro cytotoxicity assay (MTT)
# Assay type: cell-based, human
# Settings: 4 h exposure, 72 h incubation
# Procedure: A human epidermoid carcinoma cell line (A431, ATCC CRL-1555) was maintained in Dulbecco's minimum essential medium (DMEM) supplemented with 10% foetal calf serum (FCS) and 2 mM glutamine (GibcoBRL, UK) at 10% CO2 and 37° C.
# Polypropylenimine dendrimer/dendrimer derivative formulation cytotoxicity was assessed by the measurement of the IC50 in a standard MTT (3-[4,5-dimethylthiazol-2-yl]-2,5-diphenyltetrazolium bromide thiazolyl blue—indicator dye) assay. Briefly, 96 well microtitre plates were seeded with 5000 cells per well and incubated for 24 hrs. Dilutions of the dendrimer/dendrimer—DNA formulations (100 μl) in tissue culture medium (Opti-Mem) were incubated with the cells for 4 h. The samples were then replaced with fresh DMEM daily and incubated for 72 h. After this period the indicator dye (50 μl, 50 mg ml^−1) was added to each well and incubated with the cells for 4 h in the dark. The medium and indicator dye were then removed and the cells lysed with dimethylsulphoxide (200 μl). After addition of Sorensen's glycine buffer (25 μl) the absorption was measured at 570 nm. Values were expressed as a percentage of the control to which no vesicles were added.
structure (smiles),measurement,value
"CCCCCCCC/C=C\CCCCCCCC(=O)OCC(C[N+](C)(C)C)OC(=O)CCCCCCC/C=C\CCCCCCCC.COS(=O)(=O)[O-] (stereo not shown) [DOTAP, N-[1-(2,3-dioleoyloxy)propyl]-N,N,N-trimethylammonium methylsulphate]","IC50, in vitro cytotoxicity",62 µg/mL
